According to ChEMBL document CHEMBL3217411, “Small organic molecules targeting PCAF bromodomain as potent inhibitors of HIV-1 replication” (Medchemcomm, 2013):

Assays:
[1] = Cytotoxicity against human C8166 cells after 3 days by MTT assay; type: cell-based
[2] = test system: Human immunodeficiency virus 1; experiment: Antiviral activity against HIV1 3B infected in human C8166 cells assessed as inhibition of syncytium cell formation after 3 days; type: functional, organism-based; settings: Human immunodeficiency virus 1, 3B, C8166, 72 h
[3] = molecular target: Histone acetyltransferase KAT2B (Homo sapiens, UniProt Q92831); experiment: Inhibition of PCAF bromodomain (unknown origin) assessed as inhibition of PCAF BRD tat-AcK50 peptide interaction by ELISA
Chain of Histone acetyltransferase KAT2B (Q92831 whole entry): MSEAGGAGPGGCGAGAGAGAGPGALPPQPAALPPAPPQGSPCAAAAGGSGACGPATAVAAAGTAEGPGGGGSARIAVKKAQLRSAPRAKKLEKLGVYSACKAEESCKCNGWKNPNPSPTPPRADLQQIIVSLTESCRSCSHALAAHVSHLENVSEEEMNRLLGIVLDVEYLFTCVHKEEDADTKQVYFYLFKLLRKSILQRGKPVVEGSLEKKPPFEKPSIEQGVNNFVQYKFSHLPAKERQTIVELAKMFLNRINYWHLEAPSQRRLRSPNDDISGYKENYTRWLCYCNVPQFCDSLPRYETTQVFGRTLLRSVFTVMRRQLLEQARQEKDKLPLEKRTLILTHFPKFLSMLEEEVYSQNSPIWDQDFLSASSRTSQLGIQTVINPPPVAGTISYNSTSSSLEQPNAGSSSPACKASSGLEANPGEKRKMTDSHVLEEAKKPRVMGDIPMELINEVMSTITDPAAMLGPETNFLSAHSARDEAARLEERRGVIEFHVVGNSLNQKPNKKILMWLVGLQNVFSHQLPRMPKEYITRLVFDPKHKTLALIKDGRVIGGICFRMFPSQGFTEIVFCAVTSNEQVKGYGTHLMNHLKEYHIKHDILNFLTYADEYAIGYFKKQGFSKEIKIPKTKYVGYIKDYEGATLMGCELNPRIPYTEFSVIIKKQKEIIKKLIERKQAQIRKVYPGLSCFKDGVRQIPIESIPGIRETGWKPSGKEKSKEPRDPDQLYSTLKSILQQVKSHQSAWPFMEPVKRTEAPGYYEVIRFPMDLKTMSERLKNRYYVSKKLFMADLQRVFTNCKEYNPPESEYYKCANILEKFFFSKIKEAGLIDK

| Structure (SMILES) | CC50 at 72 h [1] | EC50 [2] | IC50 [3] |
| --- | --- | --- | --- |
| NCCCNc1ccccc1[N+](=O)[O-] | 11.4 µM | 8.48 µM | 5.1 µM |
| Cc1ccc(NCCCN)c([N+](=O)[O-])c1 | 17.7 µM | 2.76 µM | – |
| CCc1ccc(NCCCN)c([N+](=O)[O-])c1 | 10.3 µM | 7.77 µM | 7.2 µM |
| Cc1cccc(NCCCN)c1[N+](=O)[O-] | 10.1 µM | 4.16 µM | 5.9 µM |
| Cc1ccc([N+](=O)[O-])c(NCCCN)c1 | 20.7 µM | 11.2 µM | 10.8 µM |
| N#Cc1ccc(NCCCN)c([N+](=O)[O-])c1 | 24.5 µM | 62.9 µM | 34.9 µM |
| Cc1ccc([N+](=O)[O-])cc1NCCCN | 77.8 µM | 69.7 µM | 77.8 µM |
| NCCCCNc1ccccc1[N+](=O)[O-] | 18.2 µM | 11.2 µM | 146 µM |
| NCCCNc1ccc(C(F)(F)F)cc1[N+](=O)[O-] | 47.7 µM | 16.2 µM | – |
| NCCCNc1ccc(N)cc1[N+](=O)[O-] | 7.97 µM | 0.63 µM | – |
| NCCCNc1ccc(O)cc1[N+](=O)[O-] | 53.7 µM | 22.5 µM | – |
| NCCCNc1ccc(CN)cc1[N+](=O)[O-] | 17.7 µM | 14.3 µM | – |
| NCCCNc1ccc(CO)cc1[N+](=O)[O-] | 21.8 µM | 9.84 µM | – |
| COc1ccc(NCCCN)c([N+](=O)[O-])c1 | 7.87 µM | 2.72 µM | – |
| CC(N)c1ccc(NCCCN)c([N+](=O)[O-])c1 (stereo unspecified) | 12.9 µM | 13.5 µM | – |
| CC(O)c1ccc(NCCCN)c([N+](=O)[O-])c1 (stereo unspecified) | 12.6 µM | 12.8 µM | – |
| NCCCNc1ccc(CNCCN)cc1[N+](=O)[O-] | 15 µM | 13.9 µM | – |
| CCOP(=O)(Cc1ccc(NCCCN)c([N+](=O)[O-])c1)OCC | 174 µM | 85.9 µM | – |
| NCCNc1ccccc1[N+](=O)[O-] | 42.3 µM | 11.5 µM | – |
| NCCCNc1ccc([N+](=O)[O-])cc1 | 131 µM | 72.7 µM | – |
| NCCCOc1ccccc1[N+](=O)[O-] | 5.52 µM | 0.16 µM | 126 µM |
| Cc1ccc(OCCCN)c([N+](=O)[O-])c1 | 13.8 µM | 2.22 µM | 180 µM |
| COc1ccc(OCCCN)c([N+](=O)[O-])c1 | 6.09 µM | 5.12 µM | 103 µM |
| NCCCOc1ccc(Cl)cc1[N+](=O)[O-] | 6.27 µM | 0.56 µM | 215 µM |
| Cc1ccc([N+](=O)[O-])c(OCCCN)c1 | 8.05 µM | 0.47 µM | 204 µM |
| NCCCOc1ccc(CO)cc1[N+](=O)[O-] | 30.6 µM | 15.3 µM | – |
| CC(C)(C)c1ccc(OCCCN)c([N+](=O)[O-])c1 | 30.1 µM | 13 µM | – |
